# Results published in ChEMBL document CHEMBL1201862, “PubChem BioAssay data set” (2004).
# Activity calls are given as the source filed them.
# Columns and labels:
# [1] = target: T1, Sentrin-specific protease 6 (Homo sapiens, UniProt Q9GZR1); type: functional;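 note: Luminescence-based dose-response confirmatory assay of SENP6 inhibition, following up an ultra-high-throughput screen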
# T1 sequence (Q9GZR1 whole entry): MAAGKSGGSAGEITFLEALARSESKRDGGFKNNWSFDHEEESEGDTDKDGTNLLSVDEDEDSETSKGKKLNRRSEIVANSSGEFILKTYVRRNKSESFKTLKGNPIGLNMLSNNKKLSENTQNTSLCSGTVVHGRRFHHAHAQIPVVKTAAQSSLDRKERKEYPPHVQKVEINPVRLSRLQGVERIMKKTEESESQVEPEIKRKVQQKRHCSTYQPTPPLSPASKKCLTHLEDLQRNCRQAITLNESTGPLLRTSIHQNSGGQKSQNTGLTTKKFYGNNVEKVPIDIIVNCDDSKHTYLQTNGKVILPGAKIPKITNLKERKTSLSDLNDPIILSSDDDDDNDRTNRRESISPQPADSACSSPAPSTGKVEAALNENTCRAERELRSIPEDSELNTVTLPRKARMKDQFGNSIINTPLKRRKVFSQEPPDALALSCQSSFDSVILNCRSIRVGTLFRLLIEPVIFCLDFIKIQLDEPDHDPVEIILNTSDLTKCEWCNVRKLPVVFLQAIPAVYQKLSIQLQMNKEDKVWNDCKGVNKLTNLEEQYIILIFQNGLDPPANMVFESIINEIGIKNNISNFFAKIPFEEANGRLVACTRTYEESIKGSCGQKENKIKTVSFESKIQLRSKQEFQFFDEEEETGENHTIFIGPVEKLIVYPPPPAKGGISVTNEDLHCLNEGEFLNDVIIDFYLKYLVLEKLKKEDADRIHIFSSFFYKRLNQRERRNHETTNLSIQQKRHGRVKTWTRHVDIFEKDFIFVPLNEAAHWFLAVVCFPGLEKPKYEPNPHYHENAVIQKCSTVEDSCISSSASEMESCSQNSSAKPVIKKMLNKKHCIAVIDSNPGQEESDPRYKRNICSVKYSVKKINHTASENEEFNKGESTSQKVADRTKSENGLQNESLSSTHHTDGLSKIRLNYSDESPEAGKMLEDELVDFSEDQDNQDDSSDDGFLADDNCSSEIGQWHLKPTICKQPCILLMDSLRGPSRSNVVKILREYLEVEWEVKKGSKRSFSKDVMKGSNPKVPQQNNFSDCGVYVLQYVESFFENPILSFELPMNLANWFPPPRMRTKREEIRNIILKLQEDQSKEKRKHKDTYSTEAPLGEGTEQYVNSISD
# Estrogen receptor beta = Estrogen receptor beta (Homo sapiens, UniProt Q92731); test: blockers of SRC-3 recruitment to ERβ – biochemical, ELISA, streptavidin-HRP readout, orthogonal assay, confirmation (AID 1060)
# [2] = viability loss in HeLa cells – cytotoxicity control for MgcRacGAP inhibitor project, dose response (AID 624300); type: functional
# [3] = viability of HCT116 lacking mutant beta-catenin – cell-based, human colon tumor, dose response (AID 1045); type: functional;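 note: HCT116 colon tumor cells with beta catenin knocked out; cells exposed to compound for 60 hours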
# [4] = test system: Streptococcus sp. 'group A'; test: Streptococcus pyogenes SK(-)GAS viability under kanamycin – luminescence, BacTiterGlo, confirmation, counter-screen for streptokinase expression inhibitor project, dose response (AID 1900); type: functional, organism-based
# [5] = viability of PTEN-deleted HCT116 cells – cell-based, HCT116 PTEN knockout, dose response (AID 1047); type: functional;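 note: HCT116 colon tumor cells with PTEN knocked out; cells exposed to compound for 60 hours before readout; potency for loss of cell viability measured by luminescence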
# [6] = target: Cell division cycle 7-related protein kinase (Homo sapiens, UniProt O00311); type: functional;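 note: value obtained from a kinome-wide kinase panel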
# Cell division cycle 7-related protein kinase, sequence (O00311 whole entry): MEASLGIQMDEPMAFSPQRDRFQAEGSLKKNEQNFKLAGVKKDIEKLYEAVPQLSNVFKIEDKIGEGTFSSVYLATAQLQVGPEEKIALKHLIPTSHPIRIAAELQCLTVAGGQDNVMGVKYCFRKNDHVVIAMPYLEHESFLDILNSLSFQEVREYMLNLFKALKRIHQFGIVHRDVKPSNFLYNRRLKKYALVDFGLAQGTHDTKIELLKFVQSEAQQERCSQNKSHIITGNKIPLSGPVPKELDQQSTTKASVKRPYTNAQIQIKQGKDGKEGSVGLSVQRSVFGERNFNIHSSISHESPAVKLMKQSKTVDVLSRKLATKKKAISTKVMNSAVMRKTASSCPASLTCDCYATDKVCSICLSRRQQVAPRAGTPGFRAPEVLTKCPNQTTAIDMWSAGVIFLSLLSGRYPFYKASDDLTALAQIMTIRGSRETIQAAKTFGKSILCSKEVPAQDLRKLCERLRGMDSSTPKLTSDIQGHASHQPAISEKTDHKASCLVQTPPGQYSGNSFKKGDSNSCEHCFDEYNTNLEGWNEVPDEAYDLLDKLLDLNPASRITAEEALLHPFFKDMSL
# [7] = target: Dual specificity protein kinase CLK2 (Homo sapiens, UniProt P49760); type: functional
# Dual specificity protein kinase CLK2, sequence (P49760 whole entry): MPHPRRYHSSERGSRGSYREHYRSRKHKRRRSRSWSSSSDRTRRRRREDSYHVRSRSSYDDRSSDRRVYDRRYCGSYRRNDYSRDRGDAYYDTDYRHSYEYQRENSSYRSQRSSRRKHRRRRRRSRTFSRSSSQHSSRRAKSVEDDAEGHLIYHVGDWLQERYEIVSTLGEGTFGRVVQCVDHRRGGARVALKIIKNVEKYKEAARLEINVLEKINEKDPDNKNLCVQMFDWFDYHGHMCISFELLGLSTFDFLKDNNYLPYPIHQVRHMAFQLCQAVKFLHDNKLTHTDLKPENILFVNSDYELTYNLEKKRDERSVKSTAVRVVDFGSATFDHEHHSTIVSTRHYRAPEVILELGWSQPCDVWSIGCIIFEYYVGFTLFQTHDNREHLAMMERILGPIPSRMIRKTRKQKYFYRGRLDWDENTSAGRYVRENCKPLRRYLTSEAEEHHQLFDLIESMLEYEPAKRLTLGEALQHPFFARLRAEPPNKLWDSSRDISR
# [8] = target: BDNF/NT-3 growth factors receptor (Homo sapiens, UniProt Q16620); type: functional;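 note: NTRK2 measured as one member of a broad kinome-wide kinase profiling panel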
# [9] = target: Fibroblast growth factor receptor 1 (Homo sapiens, UniProt P11362); type: functional
# Fibroblast growth factor receptor 1, sequence (P11362 whole entry): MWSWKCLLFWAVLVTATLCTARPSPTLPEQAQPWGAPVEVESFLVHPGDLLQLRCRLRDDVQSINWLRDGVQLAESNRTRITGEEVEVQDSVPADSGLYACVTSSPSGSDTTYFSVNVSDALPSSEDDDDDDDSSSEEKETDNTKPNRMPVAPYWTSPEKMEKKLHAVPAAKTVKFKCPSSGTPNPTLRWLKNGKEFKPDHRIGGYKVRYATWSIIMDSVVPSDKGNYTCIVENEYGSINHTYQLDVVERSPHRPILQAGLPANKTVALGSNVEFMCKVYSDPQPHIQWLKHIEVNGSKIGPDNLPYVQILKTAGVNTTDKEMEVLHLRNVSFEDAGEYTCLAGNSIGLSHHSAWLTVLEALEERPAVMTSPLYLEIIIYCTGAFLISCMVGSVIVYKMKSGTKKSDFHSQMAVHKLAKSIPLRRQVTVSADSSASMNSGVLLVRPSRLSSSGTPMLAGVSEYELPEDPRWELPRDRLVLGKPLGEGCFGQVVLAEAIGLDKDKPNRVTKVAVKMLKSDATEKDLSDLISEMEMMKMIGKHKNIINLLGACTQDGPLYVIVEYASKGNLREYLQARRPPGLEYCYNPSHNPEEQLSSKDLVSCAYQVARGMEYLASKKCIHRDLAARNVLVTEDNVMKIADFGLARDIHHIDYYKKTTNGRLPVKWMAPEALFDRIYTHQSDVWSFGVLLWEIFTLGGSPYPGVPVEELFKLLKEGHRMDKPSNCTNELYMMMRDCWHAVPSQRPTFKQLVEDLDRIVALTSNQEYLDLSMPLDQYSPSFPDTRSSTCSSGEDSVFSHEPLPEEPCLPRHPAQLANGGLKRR
# [10] = target: Protein kinase C zeta type (Homo sapiens, UniProt Q05513); type: functional;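 note: measured as one member of a broad kinase profiling panel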
# Protein kinase C zeta type, sequence (Q05513 whole entry): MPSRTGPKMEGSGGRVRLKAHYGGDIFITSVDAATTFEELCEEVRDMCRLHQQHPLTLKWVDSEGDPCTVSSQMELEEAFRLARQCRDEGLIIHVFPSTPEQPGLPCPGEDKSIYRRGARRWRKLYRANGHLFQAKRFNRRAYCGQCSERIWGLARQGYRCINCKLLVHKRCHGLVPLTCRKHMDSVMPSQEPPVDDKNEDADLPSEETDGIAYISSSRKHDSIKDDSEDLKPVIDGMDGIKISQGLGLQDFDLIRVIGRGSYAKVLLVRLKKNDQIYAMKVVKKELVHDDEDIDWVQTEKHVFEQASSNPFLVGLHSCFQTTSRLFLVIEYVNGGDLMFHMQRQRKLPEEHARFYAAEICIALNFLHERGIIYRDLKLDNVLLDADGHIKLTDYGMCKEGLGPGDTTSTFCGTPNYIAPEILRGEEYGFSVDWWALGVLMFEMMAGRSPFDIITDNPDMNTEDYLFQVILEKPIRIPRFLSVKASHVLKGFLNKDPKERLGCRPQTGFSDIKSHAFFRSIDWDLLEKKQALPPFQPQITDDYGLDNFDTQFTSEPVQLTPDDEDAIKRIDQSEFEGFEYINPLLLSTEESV
# [11] = target: Tyrosine-protein kinase Lck (Homo sapiens, UniProt P06239); type: functional;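 note: lck was assayed as one member of a kinase panel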
# Tyrosine-protein kinase Lck, sequence (P06239 whole entry): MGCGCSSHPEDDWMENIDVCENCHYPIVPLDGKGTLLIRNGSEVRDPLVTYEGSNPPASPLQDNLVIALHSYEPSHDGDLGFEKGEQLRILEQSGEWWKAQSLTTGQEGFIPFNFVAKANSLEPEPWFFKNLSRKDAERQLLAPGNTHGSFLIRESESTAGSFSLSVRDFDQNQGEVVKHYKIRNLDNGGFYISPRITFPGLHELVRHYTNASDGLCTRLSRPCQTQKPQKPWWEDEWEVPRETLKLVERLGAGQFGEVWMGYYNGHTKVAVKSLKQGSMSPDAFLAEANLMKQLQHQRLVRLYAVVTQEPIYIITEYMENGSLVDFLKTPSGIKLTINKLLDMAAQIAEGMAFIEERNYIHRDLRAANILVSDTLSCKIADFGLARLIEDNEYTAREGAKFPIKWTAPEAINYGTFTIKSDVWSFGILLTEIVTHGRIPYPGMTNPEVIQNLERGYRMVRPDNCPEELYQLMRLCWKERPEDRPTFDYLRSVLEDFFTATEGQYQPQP
# [12] = target: Testis-specific serine/threonine-protein kinase 2 (Homo sapiens, UniProt Q96PF2); type: functional;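 note: part of the Navigating the Kinome panel, target entry STK22B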
# Testis-specific serine/threonine-protein kinase 2, sequence (Q96PF2 whole entry): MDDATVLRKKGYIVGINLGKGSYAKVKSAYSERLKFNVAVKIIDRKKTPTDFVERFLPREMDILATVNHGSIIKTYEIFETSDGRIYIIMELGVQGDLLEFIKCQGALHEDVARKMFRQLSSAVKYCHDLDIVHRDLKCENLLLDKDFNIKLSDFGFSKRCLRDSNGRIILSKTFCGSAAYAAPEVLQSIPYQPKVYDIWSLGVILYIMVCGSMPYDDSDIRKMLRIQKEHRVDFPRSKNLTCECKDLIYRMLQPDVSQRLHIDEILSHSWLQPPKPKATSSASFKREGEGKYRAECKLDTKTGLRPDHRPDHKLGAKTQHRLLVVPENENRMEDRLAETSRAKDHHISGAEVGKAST
# [13] = target: Serine/threonine-protein kinase BRSK1 (Homo sapiens, UniProt Q8TDC3); type: functional;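 note: measured within a kinome-wide kinase panel, with the target listed as KIAA1811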
# Serine/threonine-protein kinase BRSK1, sequence (Q8TDC3 whole entry): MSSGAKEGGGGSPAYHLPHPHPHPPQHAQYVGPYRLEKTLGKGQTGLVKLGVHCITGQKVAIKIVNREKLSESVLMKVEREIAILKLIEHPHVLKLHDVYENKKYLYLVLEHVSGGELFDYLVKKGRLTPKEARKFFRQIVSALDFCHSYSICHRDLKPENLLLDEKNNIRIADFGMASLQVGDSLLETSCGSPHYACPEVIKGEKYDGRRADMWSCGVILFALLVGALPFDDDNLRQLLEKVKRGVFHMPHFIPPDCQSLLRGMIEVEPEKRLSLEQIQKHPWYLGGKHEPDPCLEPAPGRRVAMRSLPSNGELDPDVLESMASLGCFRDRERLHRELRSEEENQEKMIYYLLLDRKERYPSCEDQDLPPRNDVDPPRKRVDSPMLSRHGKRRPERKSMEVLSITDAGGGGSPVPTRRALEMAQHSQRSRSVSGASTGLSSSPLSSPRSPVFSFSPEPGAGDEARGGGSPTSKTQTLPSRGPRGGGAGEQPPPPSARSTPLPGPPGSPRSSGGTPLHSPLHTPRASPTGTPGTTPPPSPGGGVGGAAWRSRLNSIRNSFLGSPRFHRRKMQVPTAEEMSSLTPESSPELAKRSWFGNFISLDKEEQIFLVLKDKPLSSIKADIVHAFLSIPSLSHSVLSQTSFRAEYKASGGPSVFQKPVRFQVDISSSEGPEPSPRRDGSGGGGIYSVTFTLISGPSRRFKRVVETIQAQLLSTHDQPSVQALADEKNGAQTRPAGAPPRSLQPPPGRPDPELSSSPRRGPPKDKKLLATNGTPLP
# [14] = target: MAP/microtubule affinity-regulating kinase 3 (Homo sapiens, UniProt P27448); type: functional;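 note: MARK3 affinity measured as one member of a kinome panel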
# MAP/microtubule affinity-regulating kinase 3, sequence (P27448 whole entry): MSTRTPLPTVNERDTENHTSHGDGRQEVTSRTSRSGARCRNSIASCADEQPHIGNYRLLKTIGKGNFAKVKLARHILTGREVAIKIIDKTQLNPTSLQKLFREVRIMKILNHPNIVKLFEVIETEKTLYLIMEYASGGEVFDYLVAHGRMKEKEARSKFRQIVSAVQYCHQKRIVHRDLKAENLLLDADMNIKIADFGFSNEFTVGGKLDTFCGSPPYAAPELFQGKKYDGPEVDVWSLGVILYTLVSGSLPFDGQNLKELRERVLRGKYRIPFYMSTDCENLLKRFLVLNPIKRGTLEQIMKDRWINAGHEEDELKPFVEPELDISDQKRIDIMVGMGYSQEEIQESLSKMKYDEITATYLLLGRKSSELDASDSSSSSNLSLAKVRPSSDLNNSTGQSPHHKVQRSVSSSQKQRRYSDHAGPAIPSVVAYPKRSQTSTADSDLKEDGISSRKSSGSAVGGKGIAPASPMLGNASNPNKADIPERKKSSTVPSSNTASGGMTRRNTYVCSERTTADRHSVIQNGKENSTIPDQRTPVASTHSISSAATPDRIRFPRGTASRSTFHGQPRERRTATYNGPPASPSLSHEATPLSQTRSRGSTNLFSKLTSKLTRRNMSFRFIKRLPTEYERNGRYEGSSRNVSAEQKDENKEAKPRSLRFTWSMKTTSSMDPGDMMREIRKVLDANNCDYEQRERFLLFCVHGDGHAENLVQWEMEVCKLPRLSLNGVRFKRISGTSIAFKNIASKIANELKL
# [15] = target: T2, Mitochondrial peptide methionine sulfoxide reductase (Bos taurus, UniProt P54149); test: Absorbance-based biochemical high throughput dose response assay for activators of Methionine sulfoxide reductase A (MsrA).; type: functional
# T2 sequence (P54149 whole entry): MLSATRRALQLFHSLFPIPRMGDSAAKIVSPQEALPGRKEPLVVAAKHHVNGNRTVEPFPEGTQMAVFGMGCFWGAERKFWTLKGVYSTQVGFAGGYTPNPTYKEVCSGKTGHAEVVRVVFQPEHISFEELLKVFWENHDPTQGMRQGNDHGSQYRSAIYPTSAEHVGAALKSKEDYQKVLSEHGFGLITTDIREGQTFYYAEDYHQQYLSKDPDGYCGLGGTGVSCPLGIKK
# BJ = test: cells; type: functional, cell-based; details: Homo sapiens
# [16] = Luminescence-based dose response cell-based high throughput screening assay for cytotoxic compounds using the IEC-6 intestinal epithelial cell line. [Related pubchem assays: 1858 (Summary AID.), 1825 (Counterscreen.), 1907 (Confirmation screen.)]; type: functional
# [17] = target: T3, Tyrosyl-DNA phosphodiesterase 2 (Homo sapiens, UniProt O95551); test: potency against TDP2 phosphodiesterase activity – biochemical, epi absorbance, IC50, dose response (AID 743297)
# T3 sequence (O95551 whole entry): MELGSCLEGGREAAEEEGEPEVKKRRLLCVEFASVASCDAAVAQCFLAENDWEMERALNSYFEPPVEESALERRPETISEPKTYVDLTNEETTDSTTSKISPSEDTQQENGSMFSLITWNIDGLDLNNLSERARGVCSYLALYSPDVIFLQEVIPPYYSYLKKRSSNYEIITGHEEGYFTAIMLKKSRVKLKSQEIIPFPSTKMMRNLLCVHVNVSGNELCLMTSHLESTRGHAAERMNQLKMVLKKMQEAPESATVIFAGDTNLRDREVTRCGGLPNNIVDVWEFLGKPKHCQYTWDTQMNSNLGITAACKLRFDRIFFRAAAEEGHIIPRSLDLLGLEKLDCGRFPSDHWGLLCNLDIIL
# HEK293 = test: NOD2 signaling inhibitors in MDP-stimulated cells, cell-based, uHTS, luminescence (AID 2001); type: functional; details: Homo sapiens
compound,measurement,setting,value
Cc1cnc(NC(=O)c2sc3ccccc3c2Cl)s1,IC50,[1],> 100 µM (inactive)
CN(C)c1ncc(C2=C(Cl)C(=O)C(N3CCCC3)=C(Cl)C2=O)s1,IC50,Estrogen receptor beta,20.6 µM (not active)
same,CC50,[2],18.7 µM (active)
same,EC50,[3],6.06 µM (active)
same,EC50,[4],24.5 µM (active)
same,EC50,[5],5.41 µM (active)
O=C1NC(=S)SC1=C1C(=O)Nc2ccc(Br)cc21,Ki,[6],> 1.26 µM (inactive)
same,Ki,[7],7.94 µM (active)
same,Ki,[8],> 5.01 µM (inactive)
same,Ki,[9],> 5.01 µM (inactive)
same,Ki,[10],> 7.94 µM (inactive)
same,Ki,[11],> 2.51 µM (inactive)
same,Ki,[12],> 1.58 µM (inactive)
same,Ki,[13],> 10 µM (inactive)
same,Ki,[14],2.51 µM (active)
O=C1C(Cl)=C(NCc2cccnc2)C(=O)c2ccccc21,EC50,[15],> 104 µM (inactive)
Cc1ccc(Nc2cc(C)nn2-c2nc(C)cc(O)n2)cc1,EC50,BJ,14 µM (active)
same,IC50,[16],0.546 µM (active)
same,EC50,[4],< 0.06 µM (active)
Nc1ccc(Br)c2cccnc12,IC50,[17],75.5 µM (inactive)
same,IC50,[1],7.46 µM (active)
O=C1C(O)=C/C(=N\c2ccccc2O)c2ccccc21,EC50,[15],> 104 µM (inactive)
same,IC50,[17],37.7 µM (inactive)
same,IC50,HEK293,> 20 µM (inactive)
same,IC50,[1],2.95 µM (active)
same,EC50,[4],3.4 µM (active)
Cc1ccc(C(=O)c2c(C)oc3c2C(=O)C(=O)c2ccccc2-3)cc1,IC50,[1],4.76 µM (active)
same,EC50,[3],2.66 µM (active)
same,EC50,[4],0.566 µM (active)
same,EC50,[5],3.11 µM (active)
